Experimental data reported in US20180265707A1, “DICHROIC DYE COMPOUND, DICHROIC DYE COMPOSITION, LIGHT-ABSORBING ANISOTROPIC FILM, POLARIZING ELEMENT, AND IMAGE DISPLAY DEVICE” (FUJIFILM Corporation, priority 2015, published 2018).

Assay: Solubility in cyclopentanone
Assay type: physicochemical
Details: solvent cyclopentanone
Procedure: For Compounds (1) to (8) thus synthesized, solubility in cyclopentanone was measured.

**Q.** For `CCCCOC(=O)CCC(=O)OCCc1ccc(/N=N/c2cc3sc(/N=N/c4ccc(N(CC)CC)cc4)nc3s2)cc1` [Compound (1)], which Solubility in cyclopentanone is on record?
**A.** 1.6% by mass

**Q.** With `CCN(CC)c1ccc(/N=N/c2nc3sc(/N=N/c4ccc(CCC(=O)OCCC(C)CCCC(C)C)cc4)cc3s2)cc1` (centres unmarked) [Compound (2)] as the molecule, how does the Solubility in cyclopentanone read?
**A.** 4.5% by mass

**Q.** For `CCCCC(CC)C(=O)OCCc1ccc(/N=N/c2cc3sc(/N=N/c4ccc(N(CC)CC)cc4)nc3s2)cc1` (centres unmarked) [Compound (3)], which Solubility in cyclopentanone is on record?
**A.** 6.0% by mass

**Q.** Which Solubility in cyclopentanone does the source give for `CCN(CC)c1ccc(/N=N/c2nc3sc(/N=N/c4ccc(CCOC(=O)CCC(=O)OCCC(C)CCCC(C)C)cc4)cc3s2)cc1` (centres unmarked) [Compound (4)] here?
**A.** 5.4% by mass

**Q.** Which Solubility in cyclopentanone does the source give for `CCCCCC(=O)OCCCCOC(=O)c1ccc(/N=N/c2cc3sc(/N=N/c4ccc(N(CC)CC)cc4)nc3s2)cc1` [Compound (5)] here?
**A.** 1.2% by mass

**Q.** For `CCCCCCCCCCCCc1ccc(/N=N/c2cc3sc(/N=N/c4ccc(N(CC)CC)cc4)nc3s2)cc1` [Compound (6), reference compound], which Solubility in cyclopentanone is on record?
**A.** 0.59% by mass

**Q.** Which Solubility in cyclopentanone does the source give for `CCCOC(=O)c1ccc(/N=N/c2cc3sc(/N=N/c4ccc(N(CC)CC)cc4)nc3s2)cc1` [Compound (7), reference compound] here?
**A.** 0.19% by mass

**Q.** With `CCCCCCCCCC(=O)OCCc1ccc(/N=N/c2cc3sc(/N=N/c4ccc(N(CC)CC)cc4)nc3s2)cc1` [Compound (8), reference compound] as the molecule, how does the Solubility in cyclopentanone read?
**A.** 0.50% by mass
